Data as given in patent publication US6515000B2, “Fungicidal mixtures based on amide compounds” (BASF Aktiengesellschaft, priority 2000, dated 2003).

Assays:
[1] = test system: mildew of wheat (Blumeria graminis forma specialis tritici); assay: Action against mildew of wheat (protective spray, wheat seedlings cv. Kanzler); type: in vivo; settings: individual active ingredient, 7 days after inoculation
Procedure: (§1) The active compounds, separately or together, are formulated as a 10% emulsion in a mixture of 70% by weight of cyclohexanone, 20% by weight of Nekanil® LN (Lutensol® AP6, wetting agent having emulsifying and dispersing action based on ethoxylated alkylphenols) and 10% by weight of Emulphor® EL (Emulan® EL, emulsifier based on ethoxylated fatty alcohols) and diluted with water to the desired concentration.
(§2) Evaluation is carried out by determining the infected leaf areas in percent. These percentages are converted into efficacies. The efficacy (W) is calculated as follows using Abbot's formula: […]
α corresponds to the fungal infection of the treated plants in % and β corresponds to the fungal infection of the untreated (control) plants in % An efficacy of 0 means that the infection level of the treated plants corresponds to that of the untreated control plants; an efficacy of 100 means that the treated plants were not infected.
The expected efficacies of the mixtures of the active compounds were determined using Colby's formula [R. S. Colby, Weeds 15, 20-22 (1967)] and compared with the observed efficacies.
Colby's formula: E×x+y−x·y/100
E expected efficacy, expressed in % of the untreated control, when using the mixture of the active compounds A and B at the concentrations a and b x efficacy, expressed in % of the untreated control, when using active compound A at the concentration a y efficacy, expressed in % of the untreated control, when using active compound B at the concentration b.
Leaves of wheat seedlings of the cultivar “Kanzler”, grown in pots, were sprayed to run-off point with an aqueous formulation of active ingredient which had been prepared using a stock solution comprising 10% of active ingredient, 85% of cyclohexanone and 5% of emulsifier, and 24 hours after the spray coating had dried on, the leaves were dusted with spores of mildew of wheat (Blumeria graminis forma specialis tritici). […] After 7 days, the extent of the development of the mildew was determined visually in % infection of the entire leaf surface. […]

[2] = test system: mildew of cucumber (Sphaerotheca fuliginea); assay: Action against mildew of cucumber (protective spray, cucumber seedlings cv. Chinesische Schlange); type: in vivo; settings: individual active ingredient, 7 days
Procedure: as §1, §2
The expected efficacies of the mixtures of the active compounds were determined using Colby's formula [R. S. Colby, Weeds 15, 20-22 (1967)] and compared with the observed efficacies. […]
Leaves of cucumber seedlings of the cultivar “Chinesische Schlange” which had been grown in pots were, at the cotyledon stage, sprayed to run-off point with an aqueous preparation of active ingredient which had been prepared using a stock solution made of 10% active ingredient, 85% of cyclohexanone and 5% of emulsifier. […] The extent of the mildew development was then determined visually in % infection of the cotyledon surface. […]

Substance: dinocap [dinocap (II)]
- Efficacy in % of the untreated control ([1]; 6 ppm in the spray liquor): 10%
- Efficacy in % of the untreated control ([1]; 12.5 ppm in the spray liquor): 10%
- Efficacy in % of the untreated control ([1]; 50 ppm in the spray liquor): 70%
- Efficacy in % of the untreated control ([2]; 6 ppm in the spray liquor): 10%
- Efficacy in % of the untreated control ([2]; 12.5 ppm in the spray liquor): 20%
